Ends that are not written are not given here. PEG = not defined here
Key:
[1] = test system: vimentin; assay: vimentin expression in SK-HEP-1 cells (ELISA); type: cell-based, human; settings: SK-HEP-1, 10 μM, 24 hours, control group 1.2 ± 0.01
Experimental: (§1) SK-HEP-1 cells were cultured in vitro, cells in the logarithmic growth phase were collected, and the cells were seeded evenly in a 24-well plate at a density of 1-3×10^5 cells/well. The cells were cultured in a cell incubator for 4-5 h. PBS was added to the control group. PBS containing polypeptide or derivative thereof (N1-N12) was added to the treatment group. The final concentration of the polypeptide or derivative thereof in the well was 10 μM. After incubating for 24 hours, the cells were collected and the total protein was extracted. ELISA was used to detect the content of fibronectin in total protein.
The experimental method for testing the inhibition on the expression of vimentin in human liver adenocarcinoma cells (SK-HEP-1) by the polypeptide or derivative thereof (N1-N12) was as described in Example 19.

[2] = test system: N-cadherin; assay: N-cadherin expression in SK-HEP-1 cells (ELISA); type: cell-based, human; settings: SK-HEP-1, 10 μM, 24 hours, control group 1.12 ± 0.03
Experimental: as §1
The experimental method for testing the inhibition on the expression of N-cadherin in human liver adenocarcinoma cells (SK-HEP-1) by the polypeptide or derivative thereof (N1-N12) was as described in Example 19.

Substance | Relative protein level (mean ± SD, P), vimentin [1] | Relative protein level (mean ± SD, P), N-cadherin [2]
N1: polypeptide with the amino acid sequence set forth in SEQ ID NO: 1 (YRVRFLAKENVTQDAEDN) | 0.97 ± 0.03, *** | 0.83 ± 0.04,***
N2: SEQ ID NO: 1 with deletion of one amino acid (position 18) at the carboxyl terminal (YRVRFLAKENVTQDAED) | 0.91 ± 0.03, **** | 0.93 ± 0.04,**
N3: SEQ ID NO: 1 with deletion of position 18 and PEG modification at the amino terminal ({PEG}-YRVRFLAKENVTQDAED; reading uncertain) | 0.96 ± 0.05, ** | 0.87 ± 0.09,*
N4: SEQ ID NO: 1 with deletion of positions 15-18 and positions 1-3 (RFLAKENVTQD) | 0.95 ± 0.03, *** | 0.93 ± 0.04,**
N5: SEQ ID NO: 1 with addition of one amino acid at the carboxyl terminal and deletion of positions 1-3 (RFLAKENVTQDAEDNC) | 0.87 ± 0.03, **** | 0.83 ± 0.04,***
N6: SEQ ID NO: 1 with deletion of four amino acids at the carboxyl terminal (positions 15-18) (YRVRFLAKENVTQD) | 0.81 ± 0.03, **** | 0.83 ± 0.04,***
N7: SEQ ID NO: 1 with addition of one amino acid at the carboxyl terminal and substitution A15R (YRVRFLAKENVTQDREDNC) | 1 ± 0.03, *** | 0.73 ± 0.06,***
N8: SEQ ID NO: 1 with deletion of positions 15-18 and positions 3, 4 and 11 (YRFLAKENTQD) | 0.81 ± 0.03, **** | 0.7 ± 0.06,***
N9: SEQ ID NO: 1 with deletion of positions 15-18 and PEG modification at the amino terminal ({PEG}-YRVRFLAKENVTQD; reading uncertain) | 1.03 ± 0.05, ** | 0.73 ± 0.04,***
N10: SEQ ID NO: 1 with deletion of positions 15-18 and 1-3 and PEG modification at the carboxyl terminal (RFLAKENVTQD-{PEG}; reading uncertain) | 0.88 ± 0.06, *** | 0.69 ± 0.03,****
N11: SEQ ID NO: 1 with deletion of positions 15-18 and 1-3 and PEG modification at the amino terminal ({PEG}-RFLAKENVTQD; reading uncertain) | 0.94 ± 0.05, *** | 0.73 ± 0.04,***
N12: SEQ ID NO: 1 with deletion of position 18 and positions 1-2 (VRFLAKENVTQDAED) | 0.71 ± 0.03, **** | 0.58 ± 0.03,***

Source: US20220280594A1, “APPLICATION OF POLYPEPTIDE OR DERIVATIVE THEREOF” (CHENGDU HUITAI BIOMEDICINE CO., LTD., priority 2019, published 2022)
